The record followed here is patent US11578012B2, “Use of N-functionalized alkoxy pyrazole compounds as nitrification inhibitors” (BASF SE, priority 2018, dated 2023).

A short description of the data set: volatility (statement on prior-art compound). It is filed as physicochemical. The note with it: qualitative statement, no method given.

In the case of `CCOc1cc(C)[nH]n1` [3-ethoxy-5-methylpyrazole], the volatility result is “high volatility”.
